Measurements: PubChem BioAssay AID1259411 (Chemical Carcinogenesis Research Information System (CCRIS), 2018)
The source made the active and inactive calls. How the calls were made is not given here.

System: rodent carcinogenicity bioassays, tumor incidence
Assay: CCRIS carcinogenicity studies
How it was run: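 NCI-built, expert-reviewed records of carcinogenicity and related test outcomes (mutagenicity, tumor promotion/inhibition) compiled from published and report sources, historical span 1985-2011, not updated.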

c1ccc2c(c1)cc1ccc3cccc4ccc2c1c34
carcinogen call (Species: MOUSE, Strain/Sex: SWISS/FEMALE, Route: DERMAL, Dose: 0, 2.2, 6.6, 20 NMOL IN 50 µL ACETONE 2/WK FOR 48 WK (STUDY DURATION: 61 WK), Dose: 0, 2.2, 6.6, 20 NMOL IN 50 µL ACETONE 2/WK FOR 48 WK (STUDY DURATION: 61 WK), Tumor Site: Type of Lesion: SKIN: PAPILLOMA, SKIN: SQUAMOUS CELL CARCINOMA): active; positive
carcinogen call (Species: MOUSE, Strain/Sex: SWISS/FEMALE, Route: DERMAL, Dose: 0, 22.2, 66.6, 200 NMOL IN 50 µL ACETONE 2/WK FOR 48 WK (STUDY DURATION: 61 WK), Dose: 0, 22.2, 66.6, 200 NMOL IN 50 µL ACETONE 2/WK FOR 48 WK (STUDY DURATION: 61 WK), Tumor Site: Type of Lesion: SKIN: SQUAMOUS CELL CARCINOMA): active; positive
carcinogen call (Species: MOUSE, Strain/Sex: SWISS/FEMALE, Route: DERMAL, Dose: 0.01-0.5%, 3/WK, Tumor Site: Type of Lesion: INTEGUMENTARY SYSTEM (SKIN): CARCINOMA, PAPILLOMA): active; positive
carcinogen call (Species: MOUSE, Strain/Sex: SWISS/FEMALE, Route: DERMAL, Dose: 0.1-9 UG, 3/WK FOR < 700 D, Tumor Site: Type of Lesion: INTEGUMENTARY SYSTEM (SKIN)): active; positive
carcinogen call (Species: MOUSE, Strain/Sex: WILDTYPE/MALE, Route: GAVAGE, Dose: 0, 13, 39 MG/KG BW IN 0.1 ML SOY OIL 3/WK FOR 13 WK (STUDY DURATION: 291 D), Dose: 0, 13, 39 MG/KG BW IN 0.1 ML SOY OIL 3/WK FOR 13 WK (STUDY DURATION: 291 D), Tumor Site: Type of Lesion: LYMPHATIC SYSTEM: LYMPHOMA, FORESTOMACH: TUMOR): active; positive
carcinogen call (Species: Mouse, Strain/Sex: 129 x MF1 Gstp-null (14-15 males and females), Route: Intraperitoneal, Dose: 200 mg/kg, once, study duration 5 mo, Tumor Site: Type of Lesion: Lung: adenoma (incidence 71% vs 27% in controls, multiplicity 3.0 vs 0.3 in controls)): inactive; negative
carcinogen call (Species: Mouse, Strain/Sex: 129 x MF1 wild type (14-16 males and females), Route: Intraperitoneal, Dose: 200 mg/kg, once, study duration 5 mo, Tumor Site: Type of Lesion: Lung: adenoma (incidence 29% vs 25% in controls, multiplicity 0.4 vs 0.3 in controls)): inactive; negative
carcinogen call (Species: RABBIT, Route: DERMAL, Dose: 0.001-0.5%, 5/WK, Tumor Site: Type of Lesion: INTEGUMENTARY SYSTEM (SKIN)): active; positive
carcinogen call (Species: RABBIT, Route: DERMAL, Tumor Site: Type of Lesion: INTEGUMENTARY SYSTEM (SKIN): PAPILLOMA, CARCINOMA): active; positive
carcinogen call (Species: RAT, Route: INTRATRACHEAL, Dose: 0.0005-2.5 MG, 1/MO FOR 10 MO, OBSERVED 2 YR, Tumor Site: Type of Lesion: LUNG): active; positive
carcinogen call (Species: RAT, Route: SUBCUTANEOUS, Dose: 0.05, 0.1, 0.5, 1.0 MG, SINGLE DOSE, Tumor Site: Type of Lesion: INJECTION SITE): active; positive
carcinogen call (Species: RAT, Route: SUBCUTANEOUS, Tumor Site: Type of Lesion: INJECTION SITE): active; positive
carcinogen call (Species: RAT, Strain/Sex: F344/MALE, Route: LUNG IMPLANT, Dose: 0, 50, 100, 200 UG IN BEESWAX/TRICAPRYLIN INTO LEFT LUNG ONCE (STUDY DURATION: 100 WK), Dose: 0, 50, 100, 200 UG IN BEESWAX/TRICAPRYLIN INTO LEFT LUNG ONCE (STUDY DURATION: 100 WK), Tumor Site: Type of Lesion: LUNG: SQUAMOUS CELL CARCINOMA): active; positive
carcinogen call (Species: RAT, Strain/Sex: F344/MALE, Route: PULMONARY IMPLANT, Dose: 0, 50, 100, 200 UG IN 50 µL BEESWAX/TRICAPRYLIN IMPLANTED FOR UP TO 100 WK (STUDY DURATION: 100 WK), Dose: 0, 50, 100, 200 UG IN 50 µL BEESWAX/TRICAPRYLIN IMPLANTED FOR UP TO 100 WK (STUDY DURATION: 100 WK), Tumor Site: Type of Lesion: LUNG: TUMOR): active; positive
carcinogen call (Species: RAT, Strain/Sex: F344/MALE, Route: SUBCUTANEOUS IMPLANT, Dose: 0, 8, 40, 200, 1000 UG IN 50 µL BEESWAX/TRICAPRYLIN IMPLANTED FOR UP TO 45 WK (STUDY DURATION: 45 WK), Dose: 0, 8, 40, 200, 1000 UG IN 50 µL BEESWAX/TRICAPRYLIN IMPLANTED FOR UP TO 45 WK (STUDY DURATION: 45 WK), Tumor Site: Type of Lesion: IMPLANT SITE: TUMOR): active; positive
carcinogen call (Species: RAT, Strain/Sex: OSBORNE-MENDEL/FEMALE, Route: INTRAPULMONARY IMPLANT, Dose: 0, 0.03, 0.1, 0.3 MG IN BEESWAX AND TRIOCTANOIN IMPLANTED IN LUNG (STUDY DURATION: 141 WK), Dose: 0, 0.03, 0.1, 0.3 MG IN BEESWAX AND TRIOCTANOIN IMPLANTED IN LUNG (STUDY DURATION: 141 WK), Tumor Site: Type of Lesion: LUNG: CARCINOMA): active; positive
carcinogen call (Species: RAT, Strain/Sex: OSBORNE-MENDEL/FEMALE, Route: LUNG IMPLANT, Dose: 0, 0.1, 0.3, 1.0 MG IN BEESWAX/TRIOCTANOIN (STUDY DURATION: LIFETIME), Dose: 0, 0.1, 0.3, 1.0 MG IN BEESWAX/TRIOCTANOIN (STUDY DURATION: LIFETIME), Tumor Site: Type of Lesion: LUNG: EPIDERMOID CARCINOMA, PLEOMORPHIC SARCOMA): active; positive
carcinogen call (Species: RAT, Strain/Sex: SPRAGUE-DAWLEY/FEMALE, Route: INJECTION, Dose: 0, 0.25, 1 UMOL PER MAMMARY GLAND (STUDY DURATION: 24 WK), Dose: 0, 0.25, 1 UMOL PER MAMMARY GLAND (STUDY DURATION: 24 WK), Tumor Site: Type of Lesion: MAMMARY GLAND: TUMOR): active; positive
carcinogen call (Species: RAT, Strain/Sex: SPRAGUE-DAWLEY/FEMALE, Route: INTRAVENOUS, Dose: 39 MG/KG, SINGLE DOSE, Tumor Site: Type of Lesion: MAMMARY GLAND: CARCINOMA): active; positive
carcinogen call (Species: RAT, Strain/Sex: SPRAGUE-DAWLEY/FEMALE, Route: INTRAVENOUS, Tumor Site: Type of Lesion: MAMMARY GLAND: CARCINOMA): active; positive
carcinogen call (Species: RAT, Strain/Sex: STRAIN-CD/FEMALE, Route: GAVAGE, Dose: 0, 50 UMOL IN 0.5 ML TRIOCTANOIN 1/WK FOR 8 WK (STUDY DURATION: 49 WK), Tumor Site: Type of Lesion: MAMMARY GLAND: FIBROADENOMA, DESMOPLASTIC ADENOMA, ADENOCARCINOMA): active; positive
